Laboratory results as given in PMC10599030, “[1, 8]-Naphthyridine derivatives as dual inhibitor of alkaline phosphatase and carbonic anhydrase” (BMC Chemistry, 2023).
Values joined by “and” are separate entries in the source; they are usually repeats but may differ in a detail not shown here. Equal entries are not always repeated. Where two headings read alike, the source gives them in different places.

Legend:
Format in all cases: biochemical
h-CAIX = biological target: T1, h-CAIX (Homo sapiens, UniProt Q16790); assay: Inhibition assay for carbonic anhydrase IX; settings: for IC50: n = 3, read-out: CAIX IC50 (µM) ± SEM
T1 construct: His (N); host or cells: HEK 293 T
Procedure: (§1) Expression of enzyme protein was done according to previously reported protocol. Briefly, transfection was carried out for CA-II, IX, and XII by using vectors pCMV3-N-His, pCMV3-SP-HIS-ORF, and pCMV3-N-His obtained from Sino Biologicals Inc., respectively. […] When cells gained about 80–90% confluency, they were washed twice with PBS and transfected with 0.2 µg plasmid solution. Cells were incubated for 6 h in 5% CO2 incubator, followed by the addition of fresh growth media. Cells were again incubated for 24 h. Hygromycin B (0.2 mg/mL) was used as a selection antibiotic for transfected cells. Cells were harvested after five days and lysed. Then desired proteins were purified via Ni–NTA resin using imidazole as affinity. SDS PAGE was carried out to confirm the molecular weight of purified protein.
(§2) The CA isozymes inhibition assay was performed according to the reported method after some modifications. Assay buffer was prepared that contained 50 mM tris-sulfate, 0.1 mM ZnCl2, and pH was adjusted at 7.6. Initially, 60 µL assay buffer was added in each well of 96 wells plate, 10 µL test compound (final concentration 100 µM), and followed by the addition of 10 µL working enzyme solution. The reaction mixture was incubated for 10 min at 37 °C. […] Then 20 µL of the substrate (6 mM) was added to the reaction mixture to initiate the reaction. The reaction mixture was incubated at 37 °C for 30 min, and absorbance was measured again. […] Results were reported as the mean of triplicate experiments (± SEM). The % inhibition was calculated by following the formula. Inhibition%=100-ODtestcompound/ODcontrol×100

b-TNAP = biological target: T2, b-TNAP (Bos taurus, UniProt P09487); assay: Alkaline phosphatase inhibition assay (b-TNAP, p-NPP substrate); settings: for IC50: n = 3, read-out: b-TNAP IC50 (µM) ± SEM; for inhibition at 100 µM: read-out: b-TNAP % Inhibition
T2 sequence (P09487 18-524): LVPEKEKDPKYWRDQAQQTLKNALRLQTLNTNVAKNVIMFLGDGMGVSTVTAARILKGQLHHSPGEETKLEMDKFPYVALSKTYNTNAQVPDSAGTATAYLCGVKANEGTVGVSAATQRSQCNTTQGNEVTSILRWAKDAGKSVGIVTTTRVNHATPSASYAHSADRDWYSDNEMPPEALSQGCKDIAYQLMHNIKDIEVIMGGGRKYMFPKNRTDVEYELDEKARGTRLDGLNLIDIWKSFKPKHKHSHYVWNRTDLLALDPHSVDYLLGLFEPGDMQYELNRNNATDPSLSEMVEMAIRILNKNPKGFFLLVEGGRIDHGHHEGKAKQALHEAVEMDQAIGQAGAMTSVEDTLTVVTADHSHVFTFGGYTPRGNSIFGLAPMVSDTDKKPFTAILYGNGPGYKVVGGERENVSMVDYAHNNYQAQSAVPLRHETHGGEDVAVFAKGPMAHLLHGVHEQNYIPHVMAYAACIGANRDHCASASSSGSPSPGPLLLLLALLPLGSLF
Procedure: The assay was based on previously reported protocol. […] All the solutions were made in assay buffer comprising Tris-HCl (50 mM), ZnCl2 (0.1 mM) and MgCl2 (5 mM) and pH was adjusted at 9.5. […] Assay was started by adding 70 μL of assay buffer in each well of 96 wells flat bottom clear microplate, followed by adding 10 μL of test compound and 10 μL of working enzyme solution. The reaction mixture was incubated at 37 °C for 10 min and absorbance was measured by a microplate reader (Bio-[…], Instruments, Inc. USA) at 405 nm. The reaction was started by adding 10 μL of 5 mM p-NPP (para-nitrophenolphosphate) as substrate. […] Following formula was used to calculate the percentage of inhibition of test compounds.

h-CAXII = biological target: T3, h-CAXII (Homo sapiens, UniProt O43570); assay: Inhibition assay for carbonic anhydrase XII; settings: for IC50: n = 3, read-out: CAXII IC50 (µM) ± SEM
T3 construct: His (N); host or cells: HEK 293 T
Procedure: as §1, §2

h-CAII = biological target: T4, h-CAII (Homo sapiens, UniProt P00918); assay: Inhibition assay for carbonic anhydrase II; settings: for IC50: n = 3, read-out: CAII IC50 (µM) ± SEM
T4 construct: His (N); host or cells: HEK 293 T
Procedure: as §1, §2

c-IAP = c-IAP (Bos taurus, UniProt P19111); assay: Alkaline phosphatase inhibition assay (c-IAP, p-NPP substrate)
Procedure: [1, 8]-Naphthyridine derivatives were screened for inhibitor potential towards b-TNAP and c-IAP. The assay was based on previously reported protocol. […]. All the solutions were made in assay buffer comprising Tris–HCl (50 mM), ZnCl2 (0.1 mM) and MgCl2 (5 mM) and pH was adjusted at 9.5. Working solutions of both enzymes were prepared in assay buffer containing 50% of glycerol. The final concentration of b-TNAP and c-IAP were kept at 0.025 U/mL and 0.05 U/mL, respectively. Assay was started by adding 70 µL of assay buffer in each well of 96 wells flat bottom clear microplate, followed by adding 10 µL of test compound and 10 µL of working enzyme solution. The reaction mixture was incubated at 37 °C for 10 min and absorbance was measured by a microplate reader (Bio-TekELx 800™, Instruments, Inc. USA) at 405 nm. The reaction was started by adding 10 µL of 5 mM p-NPP (para-nitrophenolphosphate) as substrate. […]. Following formula was used to calculate the percentage of inhibition of test compounds. Inhibition%=100-ODtestcompound/ODcontrol×100

[1] = 100 µM final concentration of compound

c-IAP, sequence (P19111 20-506): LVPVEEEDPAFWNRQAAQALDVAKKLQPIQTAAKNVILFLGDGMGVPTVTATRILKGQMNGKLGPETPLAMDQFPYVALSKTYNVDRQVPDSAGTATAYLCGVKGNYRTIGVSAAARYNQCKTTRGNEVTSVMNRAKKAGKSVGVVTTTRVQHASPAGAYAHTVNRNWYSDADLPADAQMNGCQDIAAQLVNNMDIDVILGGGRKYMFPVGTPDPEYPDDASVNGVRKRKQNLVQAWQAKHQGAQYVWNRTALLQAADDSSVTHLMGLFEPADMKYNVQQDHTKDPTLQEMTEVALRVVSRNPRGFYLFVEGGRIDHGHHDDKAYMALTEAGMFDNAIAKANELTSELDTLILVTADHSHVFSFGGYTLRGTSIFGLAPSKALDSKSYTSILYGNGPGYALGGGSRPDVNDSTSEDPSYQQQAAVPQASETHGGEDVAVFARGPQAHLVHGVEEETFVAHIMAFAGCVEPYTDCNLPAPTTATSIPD
T3 sequence (O43570 25-354): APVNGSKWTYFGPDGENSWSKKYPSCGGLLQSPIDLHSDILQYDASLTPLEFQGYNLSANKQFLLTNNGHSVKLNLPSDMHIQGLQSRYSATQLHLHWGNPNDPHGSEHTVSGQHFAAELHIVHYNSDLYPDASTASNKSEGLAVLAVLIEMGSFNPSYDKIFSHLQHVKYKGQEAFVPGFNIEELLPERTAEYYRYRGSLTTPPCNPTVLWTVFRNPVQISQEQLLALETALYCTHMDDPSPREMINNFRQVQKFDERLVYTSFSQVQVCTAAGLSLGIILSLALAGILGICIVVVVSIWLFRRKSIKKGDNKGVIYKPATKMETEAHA

Compound | IC50 (h-CAIX) | IC50 (b-TNAP) | IC50 (h-CAXII) | IC50 (h-CAII) | further results
COc1ccc(-c2cc3cccnc3n3cccc23)cc1 [Compound 1f] | 0.99 ± 0.12 µM | 0.14 ± 0.12 µM | 4.3 ± 2.2 µM | – | –
c1cnc2c(c1)cc(C1CCCCC1)c1cccn12 [Compound 1l] | 3.2 ± 1.52 µM | 0.24 ± 0.06 µM | 1.5 ± 0.31 µM | 1.99 ± 0.71 µM | –
Cc1cccc(-c2cc3cccnc3n3cccc23)c1 [Compound 1i] | 0.87 ± 0.51 µM | – | 0.46 ± 0.12 µM | – | Activity against CA-IX in words (h-CAIX): significant activity; Activity against CA-II in words (h-CAII): inactive; Activity against b-TNAP in words (b-TNAP): loss of activity; inhibition at 100 µM (b-TNAP): < 30%; Activity against CA-XII in words (h-CAXII): significant activity
N[C@@H](Cc1ccccc1)C(=O)O [L-phenyl alanine, reference compound] | – | – | – | – | IC50 (c-IAP; n = 3, read-out: c-IAP IC50 (µM) ± SEM): 80.21 ± 0.001 µM
c1ccc(-c2cc3cccnc3n3cccc23)cc1 [Compound 1a] | 0.86 ± 0.47 µM | 0.38 ± 0.09 µM | 0.32 ± 0.07 µM | 1.28 ± 0.16 µM | –
CCCCc1cc2cccnc2n2cccc12 [Compound 1e] | 1.61 ± 0.26 µM | 0.32 ± 0.11 µM | 0.51 ± 0.41 µM | 0.44 ± 0.19 µM | –
Fc1ccc(-c2cc3cccnc3n3cccc23)cc1 [Compound 1c] | 0.7 ± 0.27 µM | 1.01 ± 0.31 µM | 0.96 ± 0.28 µM | 0.9 ± 0.5 µM | –
Cc1ccc(-c2cc3cccnc3n3cccc23)cc1 [Compound 1d] | 1.36 ± 0.48 µM | – | 2.4 ± 0.98 µM | – | Activity against CA-IX in words (h-CAIX): marked activity; Activity against CA-II in words (h-CAII): inactive; inhibition at 100 µM (b-TNAP): < 30%; Activity against CA-XII in words (h-CAXII): marked activity
c1ccc([C@H]2CN3CCSC3=N2)cc1 [Levamisole, reference compound] | – | 19.21 ± 0.001 µM | – | – | –
COc1ccc(-c2cc3cccnc3n3cccc23)c(C)c1 [Compound 1h] | 0.74 ± 0.51 µM | – | 0.8 ± 0.69 µM | 1.46 ± 0.96 µM | Activity against c-IAP in words (c-IAP): complete loss of activity; inhibition at 100 µM (c-IAP; read-out: c-IAP % Inhibition): 37%; Activity against b-TNAP in words (b-TNAP): loss of activity; inhibition at 100 µM (b-TNAP; [1]): 33%
CC(C)(C)c1ccc(-c2cc3cccnc3n3cccc23)cc1 [Compound 1b] | – | 0.122 µM and 0.12 µM | 1.51 ± 0.72 µM | 1.26 ± 0.44 µM | Times more potent as compared to Levamisole (standard inhibitor of TNAP) (b-TNAP; ratio of IC50 values): 160 times
c1cnc2c(c1)cc(-c1ccsc1)c1cccn12 [Compound 1k] | – | 0.36 ± 0.07 µM | 1.8 ± 0.42 µM | 1.63 ± 0.55 µM | CAIX % inhibition (h-CAIX; [1]): 35.1%; inhibition at 100 µM (h-CAIX; [1]): < 50%
COc1cccc(-c2cc3cccnc3n3cccc23)c1 [Compound 1g] | 0.11 ± 0.03 µM | 0.63 ± 0.47 µM | 3.05 ± 0.92 µM | 0.1 ± 0.04 µM | –
Fc1ccccc1-c1cc2cccnc2n2cccc12 [Compound 1j] | 1.65 ± 0.98 µM | – | 0.51 ± 0.26 µM | 2.14 ± 0.3 µM | Activity against b-TNAP in words (b-TNAP): loss of activity; inhibition at 100 µM (b-TNAP): < 20%
